Experiments:
[1] = target: T1, recombinant human IL17a (binding to its receptor IL17R) (Homo sapiens, UniProt Q16552); test: IL-17 competition ELISA I (IL17a coated, IL17R/Fc binding)
T1 construct: purchased R&D Systems 317-ILB (IL17a); 177-IR (IL17R/Fc)
T1 sequence (Q16552 20-155 limits assumed): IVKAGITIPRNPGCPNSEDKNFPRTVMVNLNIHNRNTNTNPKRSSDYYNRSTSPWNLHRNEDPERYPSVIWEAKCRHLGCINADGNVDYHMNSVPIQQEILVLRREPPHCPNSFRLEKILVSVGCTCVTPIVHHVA
Experimental: ELISA I: The ability of the compounds to block binding of IL17a to its receptor, IL17R, was analyzed in a competition ELISA format. High binding 96-well plates (Costar #9018) were coated with 20 nM of recombinant human IL17a (R&D Systems #317-ILB) in PBS (0.64 μg/mL), 100 μL/well, for 30 min at 37′C followed by 5 min at 4′C. Plates were then washed in PBST (PBS/0.05% Tween-20) on a plate washer, (Biotech EL-450) blocked with protein-free blocking buffer (Thermo Scientific #37573) in 250 μL/well for 30 min on shaker at room temperature, and then washed again. Compound dilutions prepared in PBST were added into the wells in duplicates followed by the addition of IL17R/Fc (R&D Systems #177-IR) at a final concentration of 12 nM. Plates were then incubated for 30 min at room temperature on the shaker. Wells with no compound served as a positive “no competitor” control, while wells with no IL17R/Fc and no compound served as a blank negative control. After an additional PBST wash, 50 ng/mL HRP-conjugated goat anti-human Fc IgG (KPL #04-10-20) was added to the plate for 30 min at room temperature, followed by PBST wash and addition of SureBlue™ TMB (KPL #52-00-03). After the sufficient color development, the reaction was fixed by the addition of 100 μL/well 0.5 N HCl and absorbance was measured at 450 nm on Biotek plate reader.
Data were processed using BioAssay Enterprise v10.1.4 (CambridgeSoft) software. Linear OD λ450 were plotted against log concentration (x) and fitted to a 4-parameter logistic equation. IC50 was calculated using positive ‘no competitor’ control data as an upper limit and blank control as a lower limit in each assay.

[2] = target: T2, biotinylated human IL-17 (binding to IL17R/Fc) (Homo sapiens, UniProt Q16552); test: IL-17 competition ELISA II (captured IL17R/Fc, biotinylated IL-17)
T2 construct: purchased R&D Systems 317-ILB (IL-17, biotinylated); 177-IR (IL17R/Fc)
T2 sequence (Q16552 20-155 limits assumed): T1 sequence (Q16552 20-155 limits assumed)
How it was run: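 Competition read-out: absorbance at 450 nm after streptavidin-HRP/TMB detection, fitted to a 4-parameter logistic model bounded by no-competitor and blank wells to give IC50. Compound was serially diluted 5-fold from 1 μM alongside 20 nM (stock) biotinylated IL-17 on IL17R/Fc (10 nM) captured via goat anti-human IgG, 30 min at room temperature.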

| SMILES | IC50 [1] [nM] | IC50 [2] [nM] |
| --- | --- | --- |
| O=C1CNC(=O)[C@@H](Cc2ccc(NC(=O)[C@H](Cc3ccccc3Cl)NC(=O)CN3CCOCC3)cc2)NC(=O)CC2(CCCC2)CC(=O)NCCCCCN1 [Compound 304] | 100 to 1000 |  |
| CN1CCOCCN(C)C(=O)[C@@H](CCS(C)(=O)=O)NC(=O)[C@@H](Cc2ccc(NC(=O)[C@H](Cc3ccccc3Cl)NC(=O)C(F)(F)c3ccccc3)cc2)NC(=O)CC2(CCCC2)CC1=O [Compound 649] |  | < 100 |
| C[C@H]1NC(=O)[C@@H](Cc2ccc(NC(=O)[C@H](Cc3ccccc3Cl)NC(=O)C(F)(F)c3ccccc3)cc2)NC(=O)CC2(CCCC2)CC(=O)N2CCN(CCNC1=O)CC2 [Compound 542] |  | < 100 |
| O=C(O)CC[C@H]1NC(=O)[C@@H](Cc2ccc(NC(=O)[C@H](Cc3ccccc3Cl)NC(=O)C3(c4ccc(F)cc4)CC3)cc2)NC(=O)CC2(CCCC2)CC(=O)NCCCCCNC1=O [Compound 472] |  | < 100 |
| C[C@H]1NC(=O)[C@@H](Cc2ccc(NC(=O)[C@H](Cc3ccccc3Cl)NC(=O)C3(c4ccc(F)cc4)CC3)cc2)NC(=O)CC2(CCCC2)CC(=O)N(C)CCN(C)CCN(C)C1=O [Compound 563] |  | 100 to 1000 |
| CN(C)CCOc1ccc(CC(=O)N[C@@H](Cc2ccccc2Cl)C(=O)Nc2ccc(C[C@H]3NC(=O)CC4(CCCC4)CC(=O)NCCCCCNC(=O)[C@@H](Cc4ccccc4)NC3=O)cc2)cc1 [Compound 431] |  | < 100 |
| CN1C(=O)CC2(CCCC2)CC(=O)N[C@H](C(=O)O)CCCCNC(=O)[C@@H](C(C)(C)C)NC(=O)[C@H]1Cc1ccc(NC(=O)[C@H](Cc2ccccc2Cl)NC(=O)C2(c3ccc(F)cc3)CC2)cc1 [Compound 514] |  | 100 to 1000 |
| C[C@H]1NC(=O)[C@@H](CCNC(=O)[C@H](Cc2ccccc2Cl)NC(=O)C(F)(F)c2ccccc2)NC(=O)CC2(CCCC2)CC(=O)NCCCCCNC1=O [Compound 610] |  | > 10000 |
| O=C1CC2(CCCC2)CC(=O)N[C@H](Cc2ccc(NC(=O)[C@H](Cc3ccccc3Cl)NC(=O)Cc3cccc(O)c3)cc2)C(=O)NCCCC[C@@H](C(=O)O)N1 [Compound 461] |  | < 100 |
| O=C1CC2(CCCC2)CC(=O)N[C@H](Cc2ccc(NC(=O)[C@H](Cc3ccccc3Cl)NC(=O)c3ccccc3)cc2)C(=O)NCCCCCCCCN1 [Compound 366] |  | 100 to 1000 |
| CCOC(=O)N[C@@H](Cc1ccccc1Cl)C(=O)Nc1ccc(C[C@H]2NC(=O)CC3(CCCC3)CC(=O)NCCCCCNC(=O)[C@@H](C)NC2=O)cc1 [Compound 577] |  | < 100 |
| C[C@H]1NC(=O)[C@@H](Cc2ccc(NC(=O)[C@H](Cc3ccccc3Cl)NC(=O)Cc3ccc(F)cc3)cc2)NC(=O)CN(Cc2ccccc2)CC(=O)NCCCCCNC1=O [Compound 557] |  | 100 to 1000 |
| CN1CCCCCN(C)C(=O)[C@@H](CC(N)=O)NC(=O)[C@@H](Cc2ccc(NC(=O)[C@@H](NC(=O)C(F)(F)c3ccccc3)C3CCCCC3)cc2)NC(=O)CC2(CCCC2)CC1=O [Compound 670] |  | < 100 |
| CC(=O)NC(C(=O)Nc1ccc(CC2NC(=O)CC3(CCCC3)CC(=O)OCCCCCN(C)C(=O)CNC2=O)cc1)C1CCCCC1 (stereo not shown) [Compound 681] |  | < 100 |
| C[C@H]1NC(=O)[C@@H](Cc2ccc(NC(=O)[C@H](Cc3ccccc3Cl)NC(=O)c3cncc4ccccc34)cc2)NC(=O)CC2(CCCC2)CC(=O)NCCCCCNC1=O [Compound 429] |  | < 100 |
| C[C@H]1NC(=O)[C@@H](Cc2ccc(NC(=O)[C@H](Cc3ccccc3Cl)NC(=O)Cc3ccc(F)cc3)cc2)N(C)C(=O)CC2(CCCC2)CC(=O)N(C)CCCCCN(C)C1=O [Compound 489] |  | < 100 |
| C[C@H]1NC(=O)[C@@H](Cc2ccc(NC(=O)[C@H](Cc3ccccc3Cl)NC(=O)c3cnc4ccccc4c3)cc2)NC(=O)CC2(CCCC2)CC(=O)NCCCCCNC1=O [Compound 428] |  | < 100 |
| O=C1CNC(=O)[C@@H](Cc2ccc(NC(=O)[C@@H](Cc3ccccc3Cl)NC(=O)Cc3ccccc3)cc2)NC(=O)CC2(CCCC2)CC(=O)NCCCCCN1 [Compound 526] |  | 100 to 1000 |
| CC(c1ccccc1)C(NC(=O)C(F)(F)c1ccccc1)C(=O)Nc1ccc(C[C@H]2NC(=O)CC3(CCCC3)CC(=O)N(C)CCOCCOCCNC2=O)cc1 (stereo partly shown) [Compound 643] |  | < 100 |
| O=C1CC2(CCCC2)CC(=O)N[C@H](Cc2ccc(NC(=O)[C@H](Cc3ccccc3Cl)NC(=O)Cc3ccccc3)cc2)C(=O)NCCNCCN1 [Compound 411] |  | < 100 |
| CN1CCCCCNC(=O)C(Cc2ccc(NC(=O)C(NC(=O)c3cccnc3)C3CCCCC3)cc2)NC(=O)CC2(CCCC2)CC1=O (stereo not shown) [Compound 421] |  | 1000 to 10000 |
| O=C1CC2(CCCC2)CC(=O)N[C@H](Cc2ccc(NC(=O)[C@H](Cc3ccccc3Cl)NC(=O)Cc3ccc(CO)cc3)cc2)C(=O)NCCNCCN1 [Compound 412] |  | 100 to 1000 |

Continued, values first:

| IC50 [1] [nM] | IC50 [2] [nM] | SMILES |
| --- | --- | --- |
|  | < 100 | CN1CCCCCOC(=O)CC2(CCCC2)CC(=O)N[C@H](Cc2ccc(NC(=O)[C@@H](NC(=O)C(F)(F)c3ccccc3)C3CCCCC3)cc2)C(=O)NCC1=O [Compound 679] |
|  | < 100 | O=C(Cc1ccc(F)cc1)N[C@@H](Cc1ccccc1Cl)C(=O)Nc1ccc(C[C@H]2NC(=O)CC3(CCCC3)CC(=O)OCCCC/C=C/CNC2=O)cc1 [Compound 500] |
|  | < 100 | NC(=O)CC[C@H]1NC(=O)[C@@H](Cc2ccc(NC(=O)[C@H](Cc3ccccc3Cl)NC(=O)C3(c4ccc(F)cc4)CC3)cc2)NC(=O)CC2(CCCC2)CC(=O)N[C@H](C(=O)O)CCCCNC1=O [Compound 527] |
|  | < 100 | C[C@H]1NC(=O)[C@@H](Cc2ccc(NC(=O)[C@@H](Nc3nc4ccccc4o3)C3CCCCC3)cc2)NC(=O)CC2(CCCC2)CC(=O)N(C)CCOCCN(C)C1=O [Compound 663] |
|  | < 100 | C[C@H]1NC(=O)[C@@H](Cc2ccc(NC(=O)[C@H](Cc3ccccc3Cl)NC(=O)Cc3ccc(F)cc3)cc2)N(C)C(=O)CC2(CCCC2)CC(=O)NCCCCCNC1=O [Compound 486] |
|  | 100 to 1000 | C[C@H]1NC(=O)[C@@H](Cc2ccc(NC(=O)[C@H](Cc3ccccc3Cl)NC(=O)Cc3ccc(F)cc3)cc2)NC(=O)[C@H]2CC[C@H](CC2)C(=O)NCCCCCNC1=O [Compound 592] |
|  | < 100 | CN1CCOCCN(C)C(=O)[C@@H](Cc2cccnc2)NC(=O)[C@@H](Cc2ccc(NC(=O)[C@H](Cc3ccccc3Cl)NC(=O)C(F)(F)c3ccccc3)cc2)NC(=O)CC2(CCCC2)CC1=O [Compound 638] |
|  | > 10000 | C[C@H]1NC(=O)[C@@H](CCCNC(=O)[C@H](Cc2ccccc2Cl)NC(=O)Cc2ccc(F)cc2)NC(=O)CC2(CCCC2)CC(=O)NCCCCCNC1=O [Compound 607] |
|  | 100 to 1000 | O=C1CC2(CCCC2)CC(=O)N[C@H](Cc2ccc(NC(=O)[C@H](Cc3ccccc3Cl)NC(=O)Cc3ccccc3)cc2)C(=O)NC/C=C/CCCCCN1 [Compound 283] |
|  | < 100 | C[C@H]1NC(=O)[C@@H](Cc2ccc(NC(=O)[C@H](Cc3ccccc3Cl)NC(=O)Cc3ccc(F)cc3)cc2)NC(=O)CN(C)CC(=O)NCCCCCNC1=O [Compound 558] |
|  | 100 to 1000 | CC(=O)N[C@@H](Cc1ccccc1Cl)C(=O)Nc1ccc(C[C@H]2NC(=O)CC3(CCCC3)CC(=O)N[C@H](C(=O)O)CCCCNC2=O)cc1 [Compound 456] |
|  | < 100 | CC(=O)N[C@H](C(=O)Nc1ccc(C[C@H]2NC(=O)CC3(CCCC3)CC(=O)OCCCCCNC(=O)CNC2=O)cc1)C1CCCCC1 [Compound 673] |
|  | 1000 to 10000 | O=C1CNC(=O)[C@H](Cc2ccc(NC(=O)[C@@H](Cc3ccccc3Cl)NC(=O)Cc3ccccc3)cc2)NC(=O)CC2(CCCC2)CC(=O)N[C@@H](C(=O)O)CCCCN1 [Compound 454] |
|  | < 100 | C[C@H]1NC(=O)[C@@H](Cc2ccc(NC(=O)[C@H](Cc3ccccc3Cl)NC(=O)Cc3ccc(F)cc3)cc2)NC(=O)CC2(CCCC2)NC(=O)CCCCCCNC1=O [Compound 618] |
|  | < 100 | CN1CCOCCN(C)C(=O)[C@@H](Cc2cccnc2)NC(=O)[C@@H](Cc2ccc(NC(=O)[C@@H](NC(=O)C(F)(F)c3ccccc3)C3CCCCC3)cc2)NC(=O)CC2(CCCC2)CC1=O [Compound 650] |
|  | < 100 | C[C@H]1NC(=O)[C@@H](Cc2ccc(NC(=O)[C@@H](NC(=O)Cc3ccc(F)cc3)C3CCCCC3)cc2)NC(=O)CC2(CCCC2)CC(=O)N(C)CCCCCN(C)C1=O [Compound 623] |
|  | < 100 | O=C1CC2(CCCC2)CC(=O)N[C@H](Cc2ccc(NC(=O)[C@H](Cc3ccccc3Cl)NC(=O)Cc3ccccc3)cc2)C(=O)NCCCCN1 [Compound 391] |
|  | > 10000 | C[C@H]1NC(=O)[C@@H](CCNC(=O)[C@H](Cc2ccccc2Cl)NC(=O)Cc2ccc(F)cc2)NC(=O)CC2(CCCC2)CC(=O)NCCCCCNC1=O [Compound 609] |

Source: patent US9284283B2, “Macrocyclic compounds for modulating IL-17” (ENSEMBLE THERAPEUTICS CORPORATION, priority 2012, dated 2016)
